# In article PMC7781520 (Channels, 2020):
# Biological target: Kv1.3 voltage-gated K+ channel (Homo sapiens, UniProt P22001)
# Format: cell-based
# Chain of Kv1.3 voltage-gated K+ channel (P22001 whole entry): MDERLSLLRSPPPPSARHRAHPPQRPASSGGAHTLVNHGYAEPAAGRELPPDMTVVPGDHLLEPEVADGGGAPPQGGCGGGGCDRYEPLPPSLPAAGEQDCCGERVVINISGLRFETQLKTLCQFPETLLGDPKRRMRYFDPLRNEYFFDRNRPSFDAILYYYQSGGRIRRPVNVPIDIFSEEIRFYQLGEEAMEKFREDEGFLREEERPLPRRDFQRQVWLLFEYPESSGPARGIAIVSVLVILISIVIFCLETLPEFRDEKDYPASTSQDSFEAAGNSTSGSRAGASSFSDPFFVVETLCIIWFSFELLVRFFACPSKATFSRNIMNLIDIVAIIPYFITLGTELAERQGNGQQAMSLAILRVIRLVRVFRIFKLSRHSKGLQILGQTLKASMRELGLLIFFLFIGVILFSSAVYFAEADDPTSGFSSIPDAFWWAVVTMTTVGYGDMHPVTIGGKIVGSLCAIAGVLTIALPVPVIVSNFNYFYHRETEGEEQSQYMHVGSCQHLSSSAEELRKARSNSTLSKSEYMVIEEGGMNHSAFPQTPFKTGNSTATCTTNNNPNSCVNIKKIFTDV
structure (smiles),measurement,value
CC[N+](CC)(CC)CC [TEA+],IC50,10.3 ± 0.71 mM
